Literature values as cited in patent US9045800B2, “Methods and compositions for identifying, classifying and monitoring subject having Bcl-2 family inhibitor-resistant tumors and cancers” (AbbVie Inc., priority 2009, dated 2015).

Columns and labels:
[1] = test system: human cancer cell lines (SCLC and lymphoma cell lines)
[2] = test system: solid tumors; conditions: literature statement, no dose or model printed

CN(C)CC[C@H](CSc1ccccc1)Nc1ccc(S(=O)(=O)NC(=O)c2ccc(N3CCN(Cc4ccccc4-c4ccc(Cl)cc4)CC3)cc2)cc1[N+](=O)[O-] [ABT-737, N-(4-(4-((4′-chloro(1,1′-biphenyl)-2-yl)methyl)piperazin-1-yl)benzoyl)-4-(((1R)-3-(dimethylamino)-1-((phenylsulfanyl)methyl)propyl)amino)-3-nitrobenzenesulfonamide]
potency against a diverse panel of human cancer cell lines [1]: selective potency against SCLC and lymphoma cell lines | effect on solid tumors [2]: induce regression of solid tumors
